Measurements as given in US9133492B2, “Kanamycin compound, kanamycin-producing Streptomyces species bacterium, and method of producing kanamycin” (iNtRON Biotechnology, Inc., priority 2010, dated 2015).
Converted amounts (≈) assume the structure as drawn. Where two headings read alike, the source gives them in different places.

Key:
[1] = tested on: E. coli ATCC 25922(Kan^S); test: microbe, parasite or virus in culture; type: cell-based, Escherichia coli
Procedure: (§1) In one embodiment of the present invention, antibacterial spectra against kanamycin intermediates and analogs produced by the present invention were measured. Typical gram-negative strains (E. coli and Pseudomonas aeruginosa) and four clinically isolated strains were employed to check the antibacterial spectra (See table 2).
(§2) To check the antibacterial spectra of kanamycin biosynthetic intermediates and their analogs, a total six kinds of Gram-negative bacteria such as kanamycin-sensitive (Kan^S) E. coli ATCC 25922, kanamycin-resistant (Kan^R) Pseudomonas aeruginosa ATCC 27853, Kan^S E. coli CCARM (Culture Collection of Antimicrobial Resistant Microbes, Korea) 1A020, Kan^R E. coli CCARM 1A023, amikacin-sensitive (Amk^S) P. aeruginosa CCARM 2206, and amikacin-resistance (Amk^R) P. aeruginosa CCARM 2178 were used.
(§3) Minimum inhibitory concentrations (MICs) of various kanamycin-related pseudodi- and tri-saccharides and AHBA conjugated kanamycin analogs (except for compounds 16, 18, 19, and 20) were measured by broth microdilution according to the Clinical and Laboratory Standard Institute (CLSI, formerly NCCLS). As described in Example 2, gram-negative E. coli strains, P. aeruginosa strains, and clinically isolated strains were incubated in Mueller-Hinton broth (BD Science) at 30° C. […] An aliquot of water was used as a negative control group. The growth of the strains was observed using the Labsystems Bioscreen C, and the minimum concentrations of the aminoglycoside diluted in the broth medium to inhibit the growth of the bacterial strains were measured.

[2] = tested on: E. coli CCARM 1A020(Kan^S); test: MIC by broth microdilution (CLSI), antibacterial spectra; type: cell-based, Escherichia coli
Procedure: as §1, §2, §3

[3] = tested on: E. coli CCARM 1A023(Kan^R); test: as above; type: cell-based, Escherichia coli
Procedure: as §1, §2, §3

[4] = tested on: P. aeruginosa CCARM 2206(Amk^S); test: as above; type: cell-based, Pseudomonas aeruginosa
Procedure: as §1, §2, §3

[5] = tested on: P. aeruginosa CCARM 2178(Amk^R); test: as above; type: cell-based, Pseudomonas aeruginosa; conditions: for MIC / activity: clinically isolated amikacin-resistant P. aeruginosa strain
Procedure: as §1, §2, §3

[6] = tested on: Gram-negative bacteria (E. coli and Pseudomonas aeruginosa test strains); test: Antibacterial spectra, comparison across test strains; type: cell-based; conditions: for antibacterial activity, 6′-amino vs 6′-hydroxy pseudodisaccharides: against kanamycin-sensitive E. coli strains, compared with 6′-hydroxy derivatives 3 and 9; for antibacterial activity, 3″-amino vs 3″-hydroxy derivatives: against the test strains, compared with corresponding 3″-hydroxy derivatives 5, 13, 14 and 11; for antibacterial activity, 6′-amino vs 6′-hydroxy pseudotrisaccharides: against kanamycin-sensitive test strains, compared with compounds 6 and 12
Procedure: as §1, §2, §3

[7] = tested on: P. aeruginosa ATCC 27853(Kan^R); test: microbe, parasite or virus in culture; type: cell-based; conditions: Pseudomonas aeruginosa, ATCC27853
Procedure: as §1, §2, §3

[8] = tested on: S. venezuelae; test: Resistance of S. venezuelae strains to kanamycin; type: cell-based, Streptomyces venezuelae
Procedure: As expected, the recombinant heterologous strain expressing kanA-kanB-kanK (DOS strain) produced compound 1 (21.4 μM) (FIG. 2A). To confer resistance to kanamycin in S. venezuelae without modifying the aminoglycoside structure, three resistance genes gtmF-gtmK-gtmL from the gentamicin gene cluster were introduced into the recombinant heterologous strain. Transformants expressing these genes were resistant to >10.0 mg/ml of the commercially available kanamycin compared to 1.0 μg/ml in control strains. These resistance genes were expressed together with the kanamycin biosynthetic genes in the heterologous host in subsequent experiments.

[9] = E. coli ATCC 25922, kanamycin-sensitive typical strain
[10] = E. coli CCARM 1A020, kanamycin-sensitive clinically isolated strain
[11] = E. coli CCARM 1A023, kanamycin-resistant clinically isolated strain
[12] = P. aeruginosa CCARM 2206, amikacin-sensitive clinically isolated strain
[13] = P. aeruginosa CCARM 2178, amikacin-resistant clinically isolated strain
[14] = Pseudomonas aeruginosa, CCARM2206
[15] = Pseudomonas aeruginosa, CCARM2178
[16] = Escherichia coli, E. coli CCARM 1A023, kanamycin-resistant clinically isolated strain, read-out: MIC
[17] = Pseudomonas aeruginosa, CCARM2206, P. aeruginosa CCARM 2206, amikacin-sensitive clinically isolated strain, read-out: MIC
[18] = Pseudomonas aeruginosa, CCARM2178, P. aeruginosa CCARM 2178, amikacin-resistant clinically isolated strain, read-out: MIC

| Compound | MIC [1, 9] [mg/L] | MIC [2, 10] | MIC [3, 11] | MIC [4, 12] | MIC [5, 13] | further results |
| --- | --- | --- | --- | --- | --- | --- |
| NCC1OC(OC2C(N)CC(N)C(O)C2O)C(O)C(O)C1O (stereo not shown) [Compound 10, 2′-deamino-2′-hydroxyneamine] | 64 (≈ 198 µM) | 64 mg/L (≈ 198 µM) | NA (NA represents no activity at 128 μg/mL) | 128 mg/L (≈ 396 µM) | NA (NA represents no activity at 128 μg/mL) | antibacterial activity, 6′-amino vs 6′-hydroxy pseudodisaccharides [6]: more active |
| N[C@H]1[C@@H](O[C@H]2[C@H](O)[C@@H](O)[C@H](N)C[C@@H]2N)O[C@H](CO)[C@@H](O)[C@@H]1O [Compound 3, paromamine] |  |  |  |  |  | MIC ([1]; Escherichia coli, ATCC25922): 128 mg/L (≈ 396 µM); MIC ([2]; Escherichia coli): 128 mg/L (≈ 396 µM); MIC ([3]; Escherichia coli): > 128 mg/L; MIC [4, 14]: > 128 mg/L; MIC [5, 15]: > 128 mg/L; MIC [7]: > 128 mg/L |
| N[C@@H]1[C@@H](O)[C@@H](O[C@@H]2[C@@H](O)[C@H](O[C@H]3O[C@H](CO)[C@@H](O)[C@H](O)[C@H]3O)[C@@H](N)C[C@H]2N)O[C@H](CO)[C@H]1O [Compound 12, kanamycin X] | 16 (≈ 33 µM) | 16 mg/L (≈ 33 µM) | NA (NA represents no activity at 128 μg/mL) | 64 mg/L (≈ 132 µM) | NA (NA represents no activity at 128 μg/mL) | antibacterial activity, 3″-amino vs 3″-hydroxy derivatives [6]: increased activity |
| N[C@@H]1[C@@H](O)[C@@H](O[C@@H]2[C@@H](O)[C@H](O[C@H]3O[C@H](CO)[C@@H](O)[C@H](O)[C@H]3N)[C@@H](N)C[C@H]2N)O[C@H](CO)[C@H]1O [Compound 6, kanamycin C] | 16 (≈ 33 µM) | 16 mg/L (≈ 33 µM) | NA (NA represents no activity at 128 μg/mL) | 64 mg/L (≈ 132 µM) | NA (NA represents no activity at 128 μg/mL) | antibacterial activity, 3″-amino vs 3″-hydroxy derivatives [6]: increased activity |
| N[C@@H]1C[C@H](N)[C@@H](O[C@H]2O[C@H](CO)[C@@H](O)[C@H](O)[C@H]2O)C(O)[C@H]1O[C@H]1O[C@H](CO)[C@@H](O)[C@H](O)[C@H]1O (stereo partly shown) [Compound 11, 3″-deamino-3″-hydroxykanamycin X] |  | NA (NA represents no activity at 128 μg/mL) | NA (NA represents no activity at 128 μg/mL) | NA (NA represents no activity at 128 μg/mL) | NA (NA represents no activity at 128 μg/mL) |  |
| kanamycin D [Compound 14] |  | 128 mg/L | NA (NA represents no activity at 128 μg/mL) | NA (NA represents no activity at 128 μg/mL) | NA (NA represents no activity at 128 μg/mL) |  |
| NC[C@H]1O[C@H](O[C@H]2[C@H](O)[C@@H](O[C@H]3O[C@H](CO)[C@@H](O)[C@H](O)[C@H]3O)[C@H](N)C[C@@H]2N)[C@H](N)[C@@H](O)[C@@H]1O [Compound 13, 3″-deamino-3″-hydroxykanamycin B] |  | 128 mg/L (≈ 264 µM) | NA (NA represents no activity at 128 μg/mL) | NA (NA represents no activity at 128 μg/mL) | NA (NA represents no activity at 128 μg/mL) |  |
| NC[C@H]1O[C@H](O[C@H]2[C@H](O)[C@@H](O)[C@H](N)C[C@@H]2N)[C@H](N)[C@@H](O)[C@@H]1O [Compound 4, neamine] |  |  |  |  |  | MIC ([1]; Escherichia coli, ATCC25922): 64 mg/L (≈ 199 µM); MIC ([2]; Escherichia coli): 64 mg/L (≈ 199 µM); MIC ([3]; Escherichia coli): > 128 mg/L; MIC [4, 14]: 128 mg/L (≈ 397 µM); MIC [5, 15]: > 128 mg/L; MIC [7]: > 128 mg/L; antibacterial activity, 6′-amino vs 6′-hydroxy pseudodisaccharides [6]: more active |
| NCC[C@H](O)C(=O)N[C@@H]1C[C@H](N)[C@@H](O[C@H]2O[C@H](CN)[C@@H](O)[C@H](O)[C@H]2O)[C@H](O)[C@H]1O[C@H]1O[C@H](CO)[C@@H](O)[C@H](N)[C@H]1O [Compound 15, amikacin, reference compound] |  |  |  |  |  | MIC ([1]; Escherichia coli, ATCC25922): 128 mg/L (≈ 219 µM); MIC ([2]; Escherichia coli): 128 mg/L (≈ 219 µM); MIC [3, 16]: 32 mg/L (≈ 54.6 µM); MIC [4, 17]: ≤ 0.25 mg/L; MIC [5, 18]: > 128 mg/L; MIC / activity [5]: no activity; MIC [7]: 64 mg/L (≈ 109 µM) |
| NC[C@H]1O[C@H](O[C@H]2[C@H](O)[C@@H](O[C@H]3O[C@H](CO)[C@@H](O)[C@H](N)[C@H]3O)[C@H](N)C[C@@H]2N)[C@H](O)[C@@H](O)[C@@H]1O [kanamycin] |  |  |  |  |  | kanamycin concentration the strain is resistant to ([8]; S. venezuelae transformants expressing resistance genes gtmF-gtmK-gtmL): > 10.0 mg/mL; kanamycin concentration the strain is resistant to ([8]; control strains): 0.001 mg/mL |
| NC1CC(N)C(OC2OC(CO)C(O)C(O)C2O)C(O)C1O (stereo not shown) [Compound 9, 2′-deamino-2′-hydroxyparomamine] |  | 128 mg/L (≈ 395 µM) | NA (NA represents no activity at 128 μg/mL) | NA (NA represents no activity at 128 μg/mL) | NA (NA represents no activity at 128 μg/mL) |  |
| NCC[C@H](O)C(=O)N[C@@H]1C[C@H](N)[C@@H](O[C@H]2O[C@H](CO)[C@@H](O)[C@H](O)[C@H]2O)[C@H](O)[C@H]1O[C@H]1O[C@H](CO)[C@@H](O)[C@H](N)[C@H]1O [Compound 17, 1-N-AHBA-kanamycin X] |  |  |  |  |  | MIC ([1]; Escherichia coli, ATCC25922): 16 mg/L (≈ 27.3 µM); MIC ([2]; Escherichia coli, E. coli CCARM 1A020, kanamycin-sensitive clinically isolated strain, read-out: MIC): 32 mg/L (≈ 54.6 µM); MIC [3, 16]: 16 mg/L (≈ 27.3 µM); MIC [4, 17]: 0.25 mg/L (≈ 0.426 µM); MIC [5, 18]: 64 mg/L (≈ 109 µM); antibacterial effect ([5]; amikacin-resistant P. aeruginosa): antibacterial effect; MIC / activity [5]: ~64; MIC [7]: 16 mg/L (≈ 27.3 µM); antibacterial activity ([6]; against all kanamycin and amikacin-resistant test strains): strong antibacterial activity; antibacterial activity compared with amikacin (compound 15) ([6]; against all the test strains): improved antibacterial activity |
| NC[C@H]1O[C@H](O[C@H]2[C@H](O)[C@@H](O[C@H]3O[C@H](CO)[C@@H](O)[C@H](N)[C@H]3O)[C@H](N)C[C@@H]2N)[C@H](N)[C@@H](O)[C@@H]1O [Compound 7, kanamycin B, reference compound] | 2 (≈ 4.14 µM) | 4 mg/L (≈ 8.27 µM) | NA (NA represents no activity at 128 μg/mL) | 32 mg/L (≈ 66.2 µM) | NA (NA represents no activity at 128 μg/mL) | antibacterial activity, 6′-amino vs 6′-hydroxy pseudotrisaccharides [6]: more active; antibacterial activity, 3″-amino vs 3″-hydroxy derivatives [6]: increased activity |
| N[C@H]1[C@@H](O[C@H]2[C@H](O)[C@@H](O[C@H]3O[C@H](CO)[C@@H](O)[C@H](O)[C@H]3O)[C@H](N)C[C@@H]2N)O[C@H](CO)[C@@H](O)[C@@H]1O [Compound 5, 3″-deamino-3″-hydroxykanamycin C] | 128 (≈ 264 µM) | NA (NA represents no activity at 128 μg/mL) | NA (NA represents no activity at 128 μg/mL) | NA (NA represents no activity at 128 μg/mL) | NA (NA represents no activity at 128 μg/mL) |  |
| NC[C@@H]1O[C@@H](O[C@H]2[C@H](O)[C@@H](O[C@H]3O[C@H](CO)[C@@H](O)[C@H](N)[C@H]3O)[C@H](N)C[C@@H]2N)[C@@H](O)[C@H](O)[C@H]1O [Compound 8, kanamycin A, reference compound] | 2 (≈ 4.13 µM) | 4 mg/L (≈ 8.26 µM) | NA (NA represents no activity at 128 μg/mL) | 16 mg/L (≈ 33 µM) | NA (NA represents no activity at 128 μg/mL) | antibacterial activity, 6′-amino vs 6′-hydroxy pseudotrisaccharides [6]: more active; antibacterial activity, 3″-amino vs 3″-hydroxy derivatives [6]: increased activity |
